According to patent US10959966B2, “Compositions and methods for modulating HEXM1 expression” (CASE WESTERN RESERVE UNIVERSITY, priority 2014, dated 2021):

System: HEXIM1 expression in breast cancer MCF7 cells
Assay: HEXIM1 protein expression in MCF7 cells
Format: cell-based
Conditions: 18 h
Protocol: FIGS. 5(A-C) illustrate (A) the structure of HMBA analog, 4a1, (B) a graph showing HEXIM1 protein expression of breast cancer MCF7 cells treated with vehicle, HMBA, or 4a1 for 18 h, and (C) Western blot analyses of HEXIM1 targets relative to the loading control (GAPDH) of the treated cells.
MCF7, MDA-MB-231, and LNCaP cells were obtained from the American Tissue Culture Collection, and were maintained as previously described. Construction of expression vectors for control miRNA or HEXIM1 miRNAs were described previously. MCF7 or LNCaP cells were transfected with expression vectors containing either the HEXIM1 miRNA insert or a control miRNA insert as previously described. Following blasticidin selection, cells expressing the highest level of GFP were flow-sorted and expanded. MDA-MB-231 cells were transfected with control or expression vector for Flag-tagged HEXIM1 as previously described. The tamoxifen resistant cells line (TOTR) was generated by serial passage of parental MCF7 cells in growth media supplemented with 1 uM trans-hydroxytamoxifen.
Cell lysates were analyzed by western blot as previously described. Anti-HEXIM1 was generated in the Montano laboratory. Primary antibodies against p21 (C-19; cat# sc-397), cyclin D1 (HD11; cat# sc-246) and myc (9E10; cat# sc-40) were obtained from Santa Cruz Biotechnology. Anti-GAPDH was obtained from Millipore. […]

COc1ccc(CC(=O)NCCCCCCNC(C)=O)cc1 [Compound 4a1]
Potency of HEXIM1 induction compared to HMBA: increased potency
